The target of this assay is Human LDHA (Homo sapiens (Human), UniProt P00338). Description: human LDHA primary biochemical assay. As to conditions: biochemical LDHA inhibitory activity, assay of Example 1; activity level classes defined in nM. The text has this:
This example describes a human LDHA primary biochemical assay employed in the characterization of a compound of formula (I) in an embodiment of the invention.
Test compounds were placed in a Greiner Bio-One (Monroe, N.C.) 1536-well black solid bottom assay plate. 200 millimolar (mM) Tris HCl, pH 7.4, 100 micromolar (μM) EDTA and 0.01% TWEEN-20™, final concentration, was used as the assay buffer. The LDHA reagent was 2 nanomolar (nM) Human LDHA (Meridian Life Science, Inc., Memphis, Tenn.), final concentration, in assay buffer. The substrate reagent was 0.06 mM NADH and 0.2 mM sodium pyruvate, final concentration, in assay buffer. The resazurin/diaphorase coupling reagent was 0.037 mM resazurin and 0.133 milligrams per milliliter (mg/mL) diaphorase, final concentration, in assay buffer. The inhibition of LDHA activity was measured by fluorescence emission.

As for `Cc1ccc(-c2cccc(-c3nn(-c4nc(C(=O)O)cs4)c(CC4CC4)c3Cc3ccc(S(N)(=O)=O)c(F)c3)c2)cn1` [Compound 204, 2-(5-(cyclopropylmethyl)-4-(3-fluoro-4-sulfamoylbenzyl)-3-(3-(6-methylpyridin-3-yl)phenyl)-1H-pyrazol-1-yl)thiazole-4-carboxylic acid], the IC50 was < 100 nM. Next, `NS(=O)(=O)c1ccc(Cc2c(-c3cccc(-c4ccc(C(F)(F)C(F)(F)F)cc4)c3)nn(-c3nc(C(=O)O)cs3)c2CCC2CC2)cc1F` [Compound 205, 2-(5-(2-cyclopropylethyl)-4-(3-fluoro-4-sulfamoylbenzyl)-3-(4′-(perfluoroethyl)-[1,1′-biphenyl]-3-yl)-1H-pyrazol-1-yl)thiazole-4-carboxylic acid]: 100 to 1000 nM; `CC(C)c1ccc(-c2cccc(-c3nn(-c4nc(C(=O)O)cs4)c(CCC4CC4)c3Cc3ccc(S(N)(=O)=O)c(F)c3)c2)cc1` [Compound 206, 2-(5-(2-cyclopropylethyl)-4-(3-fluoro-4-sulfamoylbenzyl)-3-(4′-isopropyl-[1,1′-biphenyl]-3-yl)-1H-pyrazol-1-yl)thiazole-4-carboxylic acid]: 100 to 1000 nM. Next, `CC(C)Cc1ccc(-c2cccc(-c3nn(-c4nc(C(=O)O)cs4)c(CCC4CC4)c3Cc3ccc(S(N)(=O)=O)c(F)c3)c2)cc1` [Compound 207, 2-(5-(2-cyclopropylethyl)-4-(3-fluoro-4-sulfamoylbenzyl)-3-(4′-isobutyl-[1,1′-biphenyl]-3-yl)-1H-pyrazol-1-yl)thiazole-4-carboxylic acid]: 100 to 1000 nM; `Cc1ccc(-c2ccc(-c3cccc(-c4nn(-c5nc(C(=O)O)cs5)c(CC5CC5)c4Cc4ccc(S(N)(=O)=O)c(F)c4)c3)cc2)s1` [Compound 208, 2-(5-(cyclopropylmethyl)-4-(3-fluoro-4-sulfamoylbenzyl)-3-(4′-(5-methylthiophen-2-yl)-[1,1′-biphenyl]-3-yl)-1H-pyrazol-1-yl)thiazole-4-carboxylic acid]: 100 to 1000 nM. As for `Cc1ccc(-c2ccc(-c3cc(-c4nn(-c5nc(C(=O)O)cs5)c(CC5CC5)c4Cc4ccc(S(N)(=O)=O)c(F)c4)ccc3F)cc2)s1` [Compound 209, 2-(5-(cyclopropylmethyl)-3-(6-fluoro-4′-(5-methylthiophen-2-yl)-[1,1′-biphenyl]-3-yl)-4-(3-fluoro-4-sulfamoylbenzyl)-1H-pyrazol-1-yl)thiazole-4-carboxylic acid], the figure is 100 to 1000 nM. `CC(C)c1ccc(-c2cncc(-c3nn(-c4nc(C(=O)O)cs4)c(CC4CC4)c3Cc3ccc(S(N)(=O)=O)c(F)c3)c2)cc1` [Compound 210, 2-[5-(cyclopropylmethyl)-4-[(3-fluoro-4-sulfamoylphenyl)methyl]-3-[5-(4-isopropylphenyl)pyridin-3-yl]pyrazol-1-yl]-1,3-thiazole-4-carboxylic acid]: the 50% inhibitory concentration (IC50) is < 100 nM. As for `CC(C)c1ccc(-c2cccc(-c3nn(-c4nc(C(=O)O)cs4)c(CC4CC4)c3Cc3ccc(S(N)(=O)=O)c(F)c3)n2)cc1` [Compound 211, 2-[5-(cyclopropylmethyl)-4-[(3-fluoro-4-sulfamoylphenyl)methyl]-3-[6-(4-isopropylphenyl)pyridin-2-yl]pyrazol-1-yl]-1,3-thiazole-4-carboxylic acid], the figure is 100 to 1000 nM. With `NS(=O)(=O)c1ccc(Cc2c(-c3ccc(F)c(-c4ccc(C5CC5)c(F)c4)c3)nn(-c3nc(C(=O)O)cs3)c2CC2CC2)cc1F` [Compound 212, 2-{3-[3-(4-cyclopropyl-3-fluorophenyl)-4-fluorophenyl]-5-(cyclopropylmethyl)-4-[(3-fluoro-4-sulfamoylphenyl)methyl]pyrazol-1-yl}-1,3-thiazole-4-carboxylic acid], the concentration for half-maximal inhibition (IC50) lay within 100 to 1000 nM.

For the molecule `Cc1cc(-c2cc(-c3nn(-c4nc(C(=O)O)cs4)c(CC4CC4)c3Cc3ccc(S(N)(=O)=O)c(F)c3)ccc2F)ccc1C(C)C` [Compound 213, 2-[5-(cyclopropylmethyl)-3-[4-fluoro-3-(4-isopropyl-3-methylphenyl)phenyl]-4-[(3-fluoro-4-sulfamoylphenyl)methyl]pyrazol-1-yl]-1,3-thiazole-4-carboxylic acid], the IC50 is < 100 nM. In the case of `Cc1ncc(-c2cccc(-c3nn(-c4nc(C(=O)O)cs4)c(CC4CC4)c3Cc3ccc(S(N)(=O)=O)c(F)c3)c2)cn1` [Compound 214, 2-[5-(cyclopropylmethyl)-4-[(3-fluoro-4-sulfamoylphenyl)methyl]-3-[3-(2-methylpyrimidin-5-yl)phenyl]pyrazol-1-yl]-1,3-thiazole-4-carboxylic acid], the IC50 was < 100 nM.

Turning to `CC(C)c1cnc(-c2cccc(-c3nn(-c4nc(C(=O)O)cs4)c(CC4CC4)c3Cc3ccc(S(N)(=O)=O)c(F)c3)c2)s1` [Compound 215, 2-[5-(cyclopropylmethyl)-4-[(3-fluoro-4-sulfamoylphenyl)methyl]-3-[3-(5-isopropyl-1,3-thiazol-2-yl)phenyl]pyrazol-1-yl]-1,3-thiazole-4-carboxylic acid], the IC50 was < 100 nM.

As to `Cc1cnc(-c2cccc(-c3nn(-c4nc(C(=O)O)cs4)c(CC4CC4)c3Cc3ccc(S(N)(=O)=O)c(F)c3)c2)nc1` [Compound 217], the IC50 is < 100 nM. As for `NS(=O)(=O)c1ccc(Cc2c(-c3cccc(-c4ccc(C(F)(F)F)cc4)c3)nn(-c3nc(C(=O)O)cs3)c2CC2CC2)cc1F` [Compound 219, 2-(5-(cyclopropylmethyl)-4-(3-fluoro-4-sulfamoylbenzyl)-3-(4′-(trifluoromethyl)-[1,1′-biphenyl]-3-yl)-1H-pyrazol-1-yl)thiazole-4-carboxylic acid], the figure is < 100 nM; as for `NS(=O)(=O)c1ccc(Cc2c(-c3cccc(-c4ccc5c(c4)CCC5)c3)nn(-c3nc(C(=O)O)cs3)c2CC2CC2)cc1F` [Compound 220, 2-(5-(cyclopropylmethyl)-3-(3-(2,3-dihydro-1H-inden-5-yl)phenyl)-4-(3-fluoro-4-sulfamoylbenzyl)-1H-pyrazol-1-yl)thiazole-4-carboxylic acid], < 100 nM. Next, `NS(=O)(=O)c1ccc(Cc2c(-c3cccc(-c4ccc(C5CC5)cc4)c3)nn(-c3nc(C(=O)O)cs3)c2CC2CC2)cc1F` [Compound 222, 2-(3-(4′-cyclopropyl-[1,1′-biphenyl]-3-yl)-5-(cyclopropylmethyl)-4-(3-fluoro-4-sulfamoylbenzyl)-1H-pyrazol-1-yl)thiazole-4-carboxylic acid]: 100 to 1000 nM; `CCc1cc(-c2cc(-c3nn(-c4nc(C(=O)O)cs4)c(CC4CC4)c3Cc3ccc(S(N)(=O)=O)c(F)c3)ccc2F)ccc1OC` [Compound 223, 2-(5-(cyclopropylmethyl)-3-(3′-ethyl-6-fluoro-4′-methoxy-[1,1′-biphenyl]-3-yl)-4-(3-fluoro-4-sulfamoylbenzyl)-1H-pyrazol-1-yl)thiazole-4-carboxylic acid]: 100 to 1000 nM.

On to `NS(=O)(=O)c1ccc(Cc2c(-c3cccc(-c4ccc(C(F)(F)C(F)(F)F)cc4)c3)nn(-c3nc(C(=O)O)cs3)c2CC2CC2)cc1F` [Compound 224, 2-(5-(cyclopropylmethyl)-4-(3-fluoro-4-sulfamoylbenzyl)-3-(4′-(perfluoroethyl)-[1,1′-biphenyl]-3-yl)-1H-pyrazol-1-yl)thiazole-4-carboxylic acid], for which the IC50 was in the range of 100 to 1000 nM. As for `NS(=O)(=O)c1ccc(Cc2c(-c3ccc(F)c(-c4ccc(C(F)(F)C(F)(F)F)cc4)c3)nn(-c3nc(C(=O)O)cs3)c2CC2CC2)cc1F` [Compound 225, 2-(5-(cyclopropylmethyl)-3-(6-fluoro-4′-(perfluoroethyl)-[1,1′-biphenyl]-3-yl)-4-(3-fluoro-4-sulfamoylbenzyl)-1H-pyrazol-1-yl)thiazole-4-carboxylic acid], the figure is 100 to 1000 nM; as for `CC(C)Cc1ccc(-c2cccc(-c3nn(-c4nc(C(=O)O)cs4)c(CC4CC4)c3Cc3ccc(S(N)(=O)=O)c(F)c3)c2)cc1` [Compound 226, 2-(5-(cyclopropylmethyl)-4-(3-fluoro-4-sulfamoylbenzyl)-3-(4′-isobutyl-[1,1′-biphenyl]-3-yl)-1H-pyrazol-1-yl)thiazole-4-carboxylic acid], 100 to 1000 nM; as for `CC(C)Cc1ccc(-c2cc(-c3nn(-c4nc(C(=O)O)cs4)c(CC4CC4)c3Cc3ccc(S(N)(=O)=O)c(F)c3)ccc2F)cc1` [Compound 227, 2-(5-(cyclopropylmethyl)-3-(6-fluoro-4′-isobutyl-[1,1′-biphenyl]-3-yl)-4-(3-fluoro-4-sulfamoylbenzyl)-1H-pyrazol-1-yl)thiazole-4-carboxylic acid], 100 to 1000 nM.

Take `Cc1cc(-c2cccc(-c3nn(-c4nc(C(=O)O)cs4)c(CC4CC4)c3Cc3ccc(S(N)(=O)=O)c(F)c3)c2)ccc1O` [Compound 228, 2-(5-(cyclopropylmethyl)-4-(3-fluoro-4-sulfamoylbenzyl)-3-(4′-hydroxy-3′-methyl-[1,1′-biphenyl]-3-yl)-1H-pyrazol-1-yl)thiazole-4-carboxylic acid]: the IC50 is < 100 nM.

For the molecule `NS(=O)(=O)c1ccc(Cc2c(-c3cccc(-c4ccc(O)c(F)c4)c3)nn(-c3nc(C(=O)O)cs3)c2CC2CC2)cc1F` [Compound 229, 2-(5-(cyclopropylmethyl)-3-(3′-fluoro-4′-hydroxy-[1,1′-biphenyl]-3-yl)-4-(3-fluoro-4-sulfamoylbenzyl)-1H-pyrazol-1-yl)thiazole-4-carboxylic acid], the IC50 was < 100 nM. As for `CC(C)c1ccc(-c2cccc(-c3nn(-c4nc(C(=O)O)cs4)c(CC4CC4)c3Cc3ccc(S(N)(=O)=O)c(F)c3)c2)cc1F` [Compound 230, 2-(5-(cyclopropylmethyl)-3-(3′-fluoro-4′-isopropyl-[1,1′-biphenyl]-3-yl)-4-(3-fluoro-4-sulfamoylbenzyl)-1H-pyrazol-1-yl)thiazole-4-carboxylic acid], the figure is 100 to 1000 nM.

As a reminder, the IC50 is the concentration needed to halve the response being measured.

For the origin of these results see US10954228B2 (NATIONAL INSTITUTES OF HEALTH, UNITED STATES DEPARTMENT OF …, priority 2016, dated 2021).
